# Experimental data: US12433903B2 (priority 2021, dated 2025)
# “Also recorded” adds a separate entry of the source. Where two headings read alike, the source gives them in different places.
# Columns and labels:
# [1] = PK study after oral (PO) or intraperitoneal (IP) administration; type: in vivo, male Sprague Dawley rats; settings: CBG 30 mg/kg PO or IP; Compound 1 31.5 mg/kg PO; Compound 2 32.7 mg/kg PO
# Experimental: This study evaluated the pharmacokinetics of (E)-2-(3,7-dimethylocta-2,6-dien-1-yl)-3-methoxy-5-pentylphenol (1) and (E)-2-(3,7-dimethylocta-2,6-dien-1-yl)-1,3-dimethoxy-5-pentylbenzene (2) following oral (PO) or intraperitoneal (IP) administration to male Sprague Dawley rats.
# For the oral formulation the test article was added to the appropriate amount of Maisine and stirred until uniform. Next Labrasol was added to the formulation and allowed to stir until uniform. Finally, water will be slowly added to the stirring formulation to achieve the final volume.
# For the IP formulation the test article was added to the appropriate amount of ethanol and stirred until uniform. Next, the appropriate amount of tween-20 was added to the stirred formulation. Finally, the appropriate amount of saline was slowly added to the stirred formulation to achieve the final volume.
# Animals were fasted the evening prior to dosing with food returned at 4 h postdose, and the animals weighed on the morning of dose administration.
# IP doses were administered via injection to the intraperitoneal region. PO doses were delivered into the stomach via syringe and gavage tube.
# Blood was collected from via direct jugular stick or from the tail vein. Blood samples were kept on ice until being centrifuged at 3200 RPM for 10 minutes at ˜5° C. within 1 h of collection. Plasma was split into 2 cryovials in approximately equal volumes (0.05 mLs) and stored at −20° C.±5° C. until shipment.
# [2] = system: lipopolysaccharide (LPS)-induced inflammation; test: Anti-inflammatory activity in a rat LPS model (serum cytokines); type: in vivo, Sprague Dawley rats; settings: PO QD x 4, LPS 5 mg/kg IP, 2 h after LPS
# Experimental: This assay was employed to determine the efficacies of CBG, compound 1, and compound 2 against lipopolysaccharide (LPS)-induced inflammation in Sprague Dawley rats.
# Eight- to 10-week-old male rats were treated with CBG, Compound 1, and Compound 2, or a positive control (cyclosporin A) for four days prior to treatment with LPS. Twenty-eight (28) Sprague Dawley male rats, 8-10 weeks old, were used for this study. Animals were randomized by weight into one of 7 treatment groups as shown in Table 10 below and treated for 4 days with either vehicle control (Groups 1 and 2), Cyclosporin A (Neoral) (Group 3), CBG at 30 mg/kg (Group 4), Compound 1 at 31.5 mg/kg (Group 5), Compound 2 at 32.7 mg/kg (Group 6) or CBG at 30 mg/kg (intraperitoneal/IP; Group 7). Groups 1-6 were dosed for 4 days by oral gavage; group 7 was dosed for 4 days by IP injection. After the 4th injection, Groups 2-7 received a single IP injection of LPS at 5 mg/kg to induce inflammation. Body weight was recorded every other day starting on the day of or day prior to the first day of treatment. A terminal body weight was recorded. General health and clinical signs were recorded once daily. Blood was collected to isolate immune cells at 2 hours after the LPS injection. […]
# Serum samples (N=82) were processed and shipped to Inotiv Boulder for analysis. […] The samples were analyzed for cytokine levels using the RECYTMAG-65K Luminex™ kit. […]
# [3] = system: indomethacin induced intestinal injury; test: Indomethacin-induced Crohn's disease in rats; type: in vivo
# Experimental: The objective of this study was to determine the efficacy of Compound 1 and Compound 2 in a model of Crohn's disease (indomethacin induced intestinal injury) in rats.
# The study design was identical for Compound 1 and Compound 2. On study day -3, rats were weighed and distributed into treatment groups based on body weight.
# On study day 0, treatment was initiated and continue as indicated in the Study Design Tables below. Groups 2-6 received a subcutaneous injection of indomethacin (9 mg/kg, 1 ml/kg) in 5% sodium bicarbonate (Sterile Water). On study day 1, Groups 2-6 received a second subcutaneous injection of indomethacin (8 mg/kg, 1 ml/kg) in 5% sodium bicarbonate (Sterile Water). Live phase sample & data collection specifics are outlined below. On study day 4, animals will be euthanized, a section of the small intestine will be removed and weighed. Further necropsy sample and data collection is specified below. Overall efficacy of test articles will be based on body weight, small intestine weight (10 cm), small intestine gross score, and histopathology
# At necropsy, the small intestines were evaluated visually and given a gross score according to the following criteria: 0=Normal. 0.5=Very Minimal thickening, multifocal in area at risk. 1=Minimal thickening, fairly diffuse in area at risk. 2=Mild to moderate small intestinal/mesenteric thickening throughout area at risk. 3=Moderate thickening with 1 or more definite adhesions that would be easy to separate. 4=Marked thickening with numerous hard to separate adhesions. 5=Severe intestinal lesion resulting in death.
# Preserved 9-cm sections of small intestine were trimmed into 6 transverse sections collected at approximately equal intervals along the […] of the intestine, without bias toward lesion presence or absence. These trimmed sections were processed through graded alcohols and a clearing agent, infiltrated and embedded in paraffin, sectioned, and stained with hematoxylin and eosin (H&E).
# Small intestine sections from all animals were examined microscopically by a board-certified veterinary pathologist, and observations were entered into a computer-assisted data retrieval system. Cross sections of small intestine were scored for inflammation and necrosis using the following criteria:
# The area at risk for development of this lesion is generally approximately 30% of the total area of a cross section of small intestine where the mesentery attaches.
# Inflammation is localized to the mesentery and intestinal area at risk for necrosis with slight extension on either side of it. […] In this case, inflammation is scored based on overall severity ranging from 0.5 (very minimal) to 5 (severe) without regard for the extent of necrosis. The mean score for necrosis and inflammation was calculated for each animal and these mean scores were then summed to arrive at a total score. Each section also has a measurement of total width of mucosal necrosis.
# PTZ-induced seizure = test: PTZ-induced epilepsy (seizure) mouse model; type: in vivo; settings: 100 mg/kg IP, CBD 60 minutes, Compound 3 30 minutes prior to PTZ 80 mg/kg; for Survival Effects: mortality rate compared to the vehicle/PTZ group: 30 minute observation
# Source text: Mouse models using GABAa receptor antagonist Pentylenetetrazol (PTZ) are well defined and used as a standard for the identification of potential anticonvulsants to treat generalized clonic seizures (Loscher et al., 1991 Epilepsy Res 8:171-189). The purpose of this study was to evaluate and compare CBD to test article Compound 3, on their therapeutic effects in a mouse model of PTZ-induced seizure. To match up test article plasma concentration time max (Tmax) with the PTZ induced seizures; test articles were administered at 60 minutes and 30 minutes prior to PTZ administration respectively. Vehicle used for treatment groups was 10% EtOH/10% Tween 80/80% Saline.
# Mice were acclimated to the procedure room for at least 30 minutes. Pentylenetetrazole (PTZ; Sigma Aldrich) was formulated in water to a concentration of 16 mg/mL. Injections of PTZ were made at a volume of 5 mL/kg to produce a final dose of 80 mg/kg.
# A 30-minute maximum latency to seizure was imposed. • Clinical behavior was scored using the following adapted Racine scale: • Score 0, no seizures observed • Score 1, Behavioral arrest (freezing, fixed gaze, staring), vibrissae twitching, mouth or facial clonus • Score 2, Pop or jump, straub tail, foot splay, head nodding • Score 3, Forelimb clonus, extended forelimbs, multiple pops or jerks • Score 4, Rearing and bilateral forelimb clonus, Running and running/bouncing • Score 5, All limb clonus, rearing and falling (stay fallen on rear side) • Score 6, Tonic hindlimb extensions, cardiac arrest
# Behavior was scored by an observer blind to treatment. The highest score reached during every 5 minute period during the 30 minutes after PTZ was administered was recorded. Additionally, the percent tonic-clonic (number of animals progressing to the highest seizure score), and percent mortality was also calculated.
# [4] = PK and Tmax after intraperitoneal administration; type: in vivo; settings: male C57BL/6 mice; for Tmax: mouse, in vivo
# Source text: The purpose of this study was to determine the pharmacokinetics and time of maximum plasma (Tmax) of the test articles (TA) CBD and Compound 3 following intraperitoneal (IP) administration to male C57BL/6 mice. This method of TA delivery, dose and mouse strain was to be used in a subsequent Pentylenetetrazol (PTZ) induced seizure model for the evaluation of the TA's for anti-epileptic activity.
# UGT1A4 = target: T1, UGT1A4 (Homo sapiens, UniProt P22310); test: UGT reaction phenotyping, UGT1A4; type: in vitro ADME; settings: glucuronide formed from trifluoperazine 1 μM, printed in the half-life column with *
# T1 construct: purchased BD Biosciences
# T1 sequence (P22310 29-534): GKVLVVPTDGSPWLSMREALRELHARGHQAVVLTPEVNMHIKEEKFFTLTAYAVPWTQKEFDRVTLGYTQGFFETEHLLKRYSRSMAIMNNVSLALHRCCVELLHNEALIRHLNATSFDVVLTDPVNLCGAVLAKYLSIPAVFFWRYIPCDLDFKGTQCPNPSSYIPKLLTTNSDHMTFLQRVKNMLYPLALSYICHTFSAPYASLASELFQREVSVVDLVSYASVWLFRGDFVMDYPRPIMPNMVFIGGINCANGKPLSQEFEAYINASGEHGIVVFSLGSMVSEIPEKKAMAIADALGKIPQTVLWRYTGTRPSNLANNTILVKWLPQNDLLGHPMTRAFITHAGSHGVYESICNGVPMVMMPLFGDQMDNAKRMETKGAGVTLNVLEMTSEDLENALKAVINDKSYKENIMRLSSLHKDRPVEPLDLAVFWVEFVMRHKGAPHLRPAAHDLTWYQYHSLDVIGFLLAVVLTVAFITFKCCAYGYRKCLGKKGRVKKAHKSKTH
# Source text: Experimental Summary: UGT Reaction Phenotyping (7 Isoforms).
compound,measurement,setting,value
"CCCCCc1cc(OC)c(C/C=C(\C)CCC=C(C)C)c(OC)c1 [Compound 2, (E)-2-(3,7-dimethylocta-2,6-dien-1-yl)-1,3-dimethoxy-5-pentylbenzene]",glucuronidation / glucuronide formation in plasma (in words),[1],completely blocked glucuronide formation
same,"reduction of IL-1B and IFNy, performance relative to CBG",[2],equal to or better than CBG
same,small intestine gross score compared to vehicle,[3]; Group 4 (Compound 1: 50 mg/kg PO),trend in lower small intestine gross score
same,"reduction of necrosis width, of vehicle",[3]; Group 5,99%
same,histopathology scores vs vehicle and dexamethasone,[3]; Group 5 & 6,significantly lower
same,necrosis width vs vehicle and dexamethasone,[3]; Group 5 & 6,significantly lower
same,"reduction of necrosis width, of vehicle",[3]; Group 6,96%
same,Histopathology scores vs vehicle (Group 2),[3]; Groups 4-6,lower than the vehicle
same,necrosis width vs vehicle (Group 2),[3]; Groups 4-6,lower than the vehicle
same,small intestine gross score compared to vehicle,[3]; Groups 5-6 (Compound 1: 200 and 800 mg/kg PO),significant reductions in gross score
same,small intestine weight compared to vehicle,"[3]; all three treatment groups (Groups 4-6), PO days 0-3",significantly lower
same,body weight change from Study Day -3 (preventing weight loss),"[3]; all treatment groups (Groups 4-6), PO days 0-3, in comparison to dexamethasone (Compound 2: and vehicle)",all trended towards or had significant differences in preventing weight loss
"C=C(C)[C@@H]1CCC(C)=C[C@H]1c1c(O)cc(CCCCC)cc1OC [Compound 3, (1′R,2′R)-6-methoxy-5′-methyl-4-pentyl-2′-(prop-1-en-2-yl)-1′,2′,3′,4′-tetrahydro-[1,1′-biphenyl]-2-ol]","reduction of IL-1B and IFNy, performance relative to CBG",[2],equal to or better than CBG
same,Latency to Clonic Seizure Event compared to PTZ alone,PTZ-induced seizure,did not yield a significantly different latency; also recorded: strong trend toward longer latency
same,Latency to First Seizure Event compared to PTZ alone,PTZ-induced seizure,trended towards a longer latency
same,Latency to Tonic Seizure Event compared to PTZ alone,PTZ-induced seizure,significantly longer latency
same,Percent of animals reaching Tonic-clonic Stage 6 compared to PTZ alone,PTZ-induced seizure,significantly lower proportion
same,Racine scores over 5 minute intervals for 30 minutes compared to PTZ alone,PTZ-induced seizure,significant improvement in Racine scores
same,Survival Effects: mortality rate compared to the vehicle/PTZ group,PTZ-induced seizure,significantly reduced mortality rate
same,"Cmax, fold greater than CBD",[4]; IP,8 fold
same,"plasma PK Area Under the Curve (AUC), fold greater than CBD",[4]; IP,over 4 fold
same,Tmax,"[4]; plasma, 100 mg/kg IP, read-out: TMax (converted)",30 min
"C=C(C)[C@@H]1CCC(C)=C[C@H]1c1c(O)cc(CCCCC)cc1O [CBD, cannabidiol]",Latency to Clonic Seizure Event compared to PTZ alone,PTZ-induced seizure,did not yield a significantly different latency
same,Latency to First Seizure Event compared to PTZ alone,PTZ-induced seizure,did not result in a difference in latency to first seizure
same,Latency to Tonic Seizure Event compared to PTZ alone,PTZ-induced seizure,did not yield a significantly different latency
same,Percent of animals reaching Tonic-clonic Stage 6 compared to PTZ alone,PTZ-induced seizure,did not yield a significantly difference in proportion; also recorded: did not yield a significant difference in proportion
same,Racine scores over 5 minute intervals for 30 minutes compared to PTZ alone,PTZ-induced seizure,did not yield a significant change in clinical score
same,Survival Effects: mortality rate compared to the vehicle/PTZ group,PTZ-induced seizure,did not yield a significantly reduced mortality rate
same,Tmax,"[4]; 100 mg/kg, IP",60 min
C[N+]1([C@@H]2O[C@H](C(=O)[O-])[C@@H](O)[C@H](O)[C@H]2O)CCN(CCCN2c3ccccc3Sc3ccc(C(F)(F)F)cc32)CC1 [Trifluoperazine Glucuronide],average peak area ratio at 60 min/average peak area ratio at 0 min,UGT1A4,*6.38
